Data as given in US5015661A, “Chromanes and their pharmaceutical compositions and methods” (Hoffmann-La Roche Inc., priority 1989, dated 1991).

What was measured:
[1] = target: T1, Δ^5 -lipoxygenase from rat basophilic leukemia (RBL-1) cells (Rattus norvegicus, UniProt P12527); experiment: In vitro test for Δ^5 -lipoxygenase inhibitors (5-LO), RBL-1 cell enzyme, 5-HETE radioimmunoassay; assay type: biochemical; settings: RBL-1 5-LO; 10 min preincubation; 8.25 μM arachidonic acid, 10 min at 37° C.; 5-HETE formation; read-out: 5-LO IC-50
T1 construct: endogenous in cells; host or cells: RBL-1 rat basophilic leukemia cells (ATCC CRL 1378); 113,000×g supernatant (cytosolic fraction)
T1 sequence (P12527 1-673): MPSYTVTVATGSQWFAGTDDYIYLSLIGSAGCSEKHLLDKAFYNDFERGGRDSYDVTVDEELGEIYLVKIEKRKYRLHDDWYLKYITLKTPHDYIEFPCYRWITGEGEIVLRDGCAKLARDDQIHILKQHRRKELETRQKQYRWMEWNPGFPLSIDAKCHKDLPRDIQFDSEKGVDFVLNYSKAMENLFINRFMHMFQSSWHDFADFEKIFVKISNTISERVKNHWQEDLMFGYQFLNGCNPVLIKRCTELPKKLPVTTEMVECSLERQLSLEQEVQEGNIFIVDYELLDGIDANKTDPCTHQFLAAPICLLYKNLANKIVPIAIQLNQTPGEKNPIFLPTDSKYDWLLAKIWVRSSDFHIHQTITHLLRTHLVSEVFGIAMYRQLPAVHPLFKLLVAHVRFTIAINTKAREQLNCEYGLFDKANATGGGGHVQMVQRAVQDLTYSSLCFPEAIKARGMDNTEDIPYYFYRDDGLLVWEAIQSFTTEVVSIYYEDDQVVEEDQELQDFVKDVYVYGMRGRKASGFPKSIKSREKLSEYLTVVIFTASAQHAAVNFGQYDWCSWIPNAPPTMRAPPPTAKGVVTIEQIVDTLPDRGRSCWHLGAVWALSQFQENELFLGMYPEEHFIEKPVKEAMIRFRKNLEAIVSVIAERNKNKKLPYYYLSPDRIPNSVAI
Description: IN VITRO TEST FOR Δ^5 -LIPOXYGENASE INHIBITORS Compounds of formula I of the invention were tested for their effect on Δ^5 -lipoxygenase from rat basophilic leukemia (RBL-1) cells. Materials. RBL-1 cells (CRL 1378) were obtained from the American TYpe Culture Collection, Rockville, MD. DMEM and glutamine were purchased from Flow Labs, McLean, VA. FBS (Gibco, Grand Island, NY) was heat-inactivated for 1 hour at 56° C. Reagents for protein determinations were obtained from Biorad, Rockville Center, NY. Arachidonic acid (approx. 99%), ATP (disodium slat), BHT, dextran (clinical grade), tetrasodium EDTA, gelatin, gentamycin sulfate solution, reduced glutathione, 1 M HEPES buffer, indomethacin, NaCl, reduced NADpH, Trizma 7.2, and Trizma 8.5 were purchased from Sigma Chemical, St. Louis, MO. CaCl2 dihydrate, Norit A charcoal, and citric acid monohydrate were obtained from Fisher Scientific, Pittsburgh, PA. […] MA. A synthetic 5-HETE standard was supplied by Dr. M. Rosenberger, Dept. of Medicinal Chemistry, Hoffmann-La Roche, Nutley, NJ; [see Corey, E.J., and Hashimoto, S. (1981 ) Tet. Letters, 22, 299-302 for method of preparation]. Ecoscint liquid sointillation fluid was purchased from National Diagnostics, Sommerville, NJ. Isolation of 5-lipoxygenase. […] Approximately 7-9 days after thawing, RBL-1 cells growing in log phase were seeded at a density of 7500 viable cells/ml in a closed 89-liter spinner flask. The cells were stirred constantly for 3-4 days at 37° C. until they reached a density greater than 500,000/ml but less than 800,00/ml. RBL-1 cells were harvested by centrifugation at 4° C. at 1500×g for 10 minutes and were washed 3 times with ice cold 0.05 M tris-HCl, pH 7.2, tetrasodium EDTA (buffer 1). The cells were washed last in 0.05 M Tris-HCl containing 14 μM indomethacin, 1 mM glutathione, 1.5 mM NaCl, and 1 mM tetrasodium EDTA (buffer 2), resuspended at a density of 5×108'/ml (approximately 10 ml) and disrupted manually at 4° C. using a 40 ml Dounce (type A pestle) homogenizer. After 5 minutes of homogenization. 95% cell lysis was confirmed by phase contrast microscopy. The broken cells were diluted 1:2 with buffer 2 and centrifuged at 12,380×g for 10 minutes at 4° C. to pellet cellular debris and granules. The 12,380×g supernatant was centrifuged at 113,000×g for 60 minutes to pellet microsomes. The high-speed supernatant (5.9±0.48 mg/ml protein) was frozen immediately in 1 ml aliquots using a dry ice/acetone bath. The isolated cytosolic fraction was stored in liquid N2 for up to 8 weeks without loss of 5-LO enzyme activity. Lipoxygenase Assay. Compounds Were dissolved at 25 mM concentration in DMSO, then diluted to final concentrations using 95% ethanol. For a typical enzyme assay, the partially purified 5-LO preparation was preincubated with drug or vehicle for 10 minutes at 30° C. The assay tubes were then transferred at a 37° C. water bath where they received arachidonic acid (8.25 μM final concentration) to initiate 5-LO activity. In addition to enzyme and substrate, each reaction tube contained: 12.5 μmoles of Tris-HCl (pH 7.2), 25 nmoles glutathione, 0.35 nmoles indomethacin and 1.25 μmoles of CaCl2 and ATP to yield a total of volume of 250 μl. The enzyme reaction was terminated after 10 minutes by the addition of 75μl […] citric acid to yield pH 3.5. The samples were immediately cooled on ice and neutralized by dilution with 0.05 M Tris-HCl, pH 8.5, which contained 25 mg/1 BHT. A boiled cytosol control was placed at the end of each assay to measure non-enzymatic oxidation of arachidonic acid. The mean specific activity of the 5-LO enzyme preparation was approximately 66.16±14.39 pmol 5-HETE/min/mg protein. Radioimmunoassay for 5-HETE. Under the assay conditions described, the 5-LO catalyzed the conversion of arachidonic acid to 5-HPETE which, as a consequence o peroxidase activity, was reduced to 5-HETE. A specific radioimmunoassay was employed to quantitate the amount (pmoles) of 5-HETE formed during the enzyme reaction. […]

[2] = test system: arachidonic acid-induced mouse ear edema; experiment: Mouse ear edema test (in vivo), arachidonic acid-induced; settings: 1 mg topical, CD-1 male mice, 0.5 mg arachidonic acid 0.5 or 4 hours later, ear biopsy weight after 1 hour, read-out: EAR EDEMA % INHIB. 1 mg
Description: MOUSE EAR EDEMA TEST (IN VIVO)
In this animal model system, the application of arachidonic acid to the ear results in the biosynthesis of the metabolic products […]-6,8,11,14-eicosatetraenoic acid (5-HETE), leukotriene B4 (LTB4), leukotriene C4 (LTC4), […]-5,8,10,14-eicosatetraenoic acid (12-HETE), and prostaglandin E2 (PGE2) at the site of application, followed by the influx of neutrophils into the site and the rapid development of edema within 30 to 60 minutes (See, for instance, Young, Wagner and Spries, "Tachyphylaxis in 12-O-Tetradecanoylphorbol Acetate And Arachidonic Acid-Induced Ear Edma," J. Invest. Dermatol. 80:48 (1983) and Hames, Opas and Bonney, "Arachidonic Acid MetaboIites in Mouse Ear Edma" Advances in Inflammation Research. 11:57 (1986).
CD-1 male mice weighing 15 to 25 g were employed, and they were designated as follows: (1) Control Group, in which no arachidonic acid or test compound was to be applied, (2) Arachidonic Acid-Treated Group, in which no test compound was to be applied, and (3) Treated Group, in which the test compound was to be applied first, followed by the application of arachidonic acid.
In the case of the Group (3) animals, the test compound, dissolved in acetone, was applied to the dorsal surface of the right ear of the mouse with a 25-microliter pipette or, with the dose of the test compound being varied. After 0.5 hours in some cases and 4 hours in others, the arachidonic acid was topically applied in the same manner as above to the pretreated ear areas. In each case of arachidonic acid application, an amount of 0.5 mg dissolved in 25 microliters of acetone was used. After 1 hour, the mice were sacrificed by carbon dioxide inhalation. A 6mm-diameter standard biopsy punch was used to obtain a uniform tissue sample from the ear of each mouse so treated, and the tissue samples were weighted to the nearest 0.1 mg. The percent inhibition of ear edema formation was calculated as follows: [formula]

SMILES: COc1cc(C=O)cc2cc(C3(C)CCc4c(C)c(O)c(C)c(C)c4O3)oc12 (racemic) [Example 54, rac-2-(3,4-Dihydro-6-hydroxy-2,5,7,8-tetramethyl-2H-1-benzopyran-2-yl)-7-methoxy-5-benzofurancarboxaldehyde]
- IC50 [1]: 1 nM
- inhibition in vivo at 1 mg [2]: 40%

SMILES: Cc1c(C)c2c(c(C)c1O)CCC(C)(CCc1ccccc1)O2 (stereo not shown) [Example 56, 3,4-Dihydro-2,5,7,8-tetramethyl-2-(2-phenylethyl)-2H-1-benzopyran-6-ol]
- IC50 [1]: 110 nM
- inhibition in vivo at 1 mg [2]: 64%
